From patent US20250145628A1, “PYRAZOLOPYRIMIDINES, COMPOSITIONS COMPRISING THEM AND USES THEREOF” (Novo Nordisk A/S, priority 2022, published 2025)

Key:
human CB1 receptor [1] = biological target: T1, human CB1 receptor (Homo sapiens, UniProt P21554); assay: bioSensAll GAPL-Gi2 BRET biosensor assay (antagonism of CP-55,940); assay type: cell-based; settings: HEK293 cells transfected with hCB1 and GAPL-Gi2 biosensor, EC75 of CP-55,940 (0.1 nM), overnight incubation, read-out: CB1 wt Gi2 IC50
T1 construct: expressed in transfected cells; host or cells: HEK293
T1 sequence (P21554 whole entry): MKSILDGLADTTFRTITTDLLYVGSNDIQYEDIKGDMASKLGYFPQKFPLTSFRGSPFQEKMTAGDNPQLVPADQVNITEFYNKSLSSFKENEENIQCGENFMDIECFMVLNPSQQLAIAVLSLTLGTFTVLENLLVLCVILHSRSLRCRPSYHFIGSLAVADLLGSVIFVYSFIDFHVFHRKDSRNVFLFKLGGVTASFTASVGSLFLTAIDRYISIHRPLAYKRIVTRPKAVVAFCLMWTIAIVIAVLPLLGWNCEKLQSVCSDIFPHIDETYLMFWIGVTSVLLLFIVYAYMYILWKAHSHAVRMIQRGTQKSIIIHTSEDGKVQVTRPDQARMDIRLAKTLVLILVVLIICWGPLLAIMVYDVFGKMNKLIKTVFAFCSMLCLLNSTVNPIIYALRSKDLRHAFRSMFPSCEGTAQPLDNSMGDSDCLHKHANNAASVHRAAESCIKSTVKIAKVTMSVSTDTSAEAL
Method in brief: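 HEK293 cells transiently co-transfected with hCB1 and GAPL-Gi2 BRET biosensor; ~48 h later, in HBSS, 12 compound doses ([…]) added 3–5 min before CP-55,940 at EC75 (0.1 nM). BRET ratio 515/400 nm with coelenterazine, standardized to uBRET; four-parameter logistic fit.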

human CB1 receptor [2] = biological target: T1, human CB1 receptor; assay: bioSensAll β-arrestin plasma membrane translocation BRET biosensor (+GRK2) assay (antagonism of CP-55,940); assay type: cell-based; settings: HEK293 cells transfected with hCB1 and β-arrestin PM translocation biosensor (+GRK2), EC75 of CP-55,940 (100 nM), overnight incubation, read-out: CB1 wt βarr2 IC50
Method in brief: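 HEK293 cells co-transfected with hCB1 and β-arrestin plasma-membrane translocation BRET biosensor plus GRK2, tested ~48 h later in HBSS. Compounds (12 doses, 0–600 nM) added 3–5 min before CP-55,940 at EC75 of 100 nM. uBRET ratio (515/400 nm) fitted by four-parameter logistic regression.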

SMILES | IC50 (human CB1 receptor [1]) | IC50 (human CB1 receptor [2])
CCNC(=O)CN(C)c1cc(N2CC(OCC(N)=O)C2)n2nc(-c3ccccc3Cl)c(-c3ccc(Cl)cc3)c2n1 [Compound 69, 2-[[7-[3-(2-amino-2-oxo-ethoxy)azetidin-1-yl]-2-(2-chlorophenyl)-3-(4-chlorophenyl)pyrazolo[1,5-a]pyrimidin-5-yl]-methyl-amino]-N-ethyl-acetamide] | 3910 nM | > 30000 nM
CN(CP(C)(C)=O)c1cc(N2CCC[C@@H](C(N)=O)C2)n2nc(-c3ccccc3Cl)c(-c3ccc(Cl)cc3)c2n1 [Compound 34, (3R)-1-[2-(2-chlorophenyl)-3-(4-chlorophenyl)-5-[dimethylphosphorylmethyl(methyl)amino]pyrazolo[1,5-a]pyrimidin-7-yl]piperidine-3-carboxamide] | > 10000 nM | 155 nM
CC(C)(O)COc1cc(N2CC(C(N)=O)C2)n2nc(-c3ccc(C#N)nc3)c(-c3ccc(Cl)cc3)c2n1 [Compound 59, 1-[3-(4-chlorophenyl)-2-(6-cyano-3-pyridyl)-5-(2-hydroxy-2-methyl-propoxy)pyrazolo [1,5-a]pyrimidin-7-yl]azetidine-3-carboxamide] | 6.21 nM | 21.8 nM
CC(C)(O)COc1cc(N2CCC[C@@H](C(N)=O)C2)n2nc(-c3ccccc3Cl)c(-c3ccc(Cl)cc3)c2n1 [Compound 17(R), 1-[2-(2-chlorophenyl)-3-(4-chlorophenyl)-5-(2-hydroxy-2-methyl-propoxy)pyrazolo[1,5-a]pyrimidin-7-yl]piperidine-3-carboxamide] | 17.1 nM | 49.8 nM
CN(CP(C)(C)=O)c1cc(N2CC(CC(N)=O)C2)n2nc(-c3ccccc3Cl)c(-c3ccc(Cl)cc3)c2n1 [Compound 33, 2-[1-[2-(2-chlorophenyl)-3-(4-chlorophenyl)-5-[dimethylphosphorylmethyl(methyl)amino]pyrazolo[1,5-a]pyrimidin-7-yl]azetidin-3-yl]acetamide] | > 10000 nM | 116 nM
NC(=O)CC1CN(c2cc(N3CCC[C@H]3C(N)=O)nc3c(-c4ccc(Cl)cc4)c(-c4ccccc4Cl)nn23)C1 [Compound 35, (2S)-1-[7-[3-(2-amino-2-oxo-ethyl)azetidin-1-yl]-2-(2-chlorophenyl)-3-(4-chlorophenyl)pyrazolo[1,5-a]pyrimidin-5-yl]pyrrolidine-2-carboxamide] | 158 nM | > 10000 nM
CCNC(=O)CN(C)c1cc(N2CC[C@H](CC(N)=O)C2)n2nc(-c3ccccc3Cl)c(-c3ccc(Cl)cc3)c2n1 [Compound 36, 2-[(3R)-1-[2-(2-chlorophenyl)-3-(4-chlorophenyl)-5-[[2-(ethylamino)-2-oxo-ethyl]-methyl-amino]pyrazolo[1,5-a]pyrimidin-7-yl]pyrrolidin-3-yl]acetamide] | 150 nM | 325 nM

Now those with a lower IC50 (human CB1 receptor [1]), led by results:

IC50 (human CB1 receptor [1]) | IC50 (human CB1 receptor [2]) | SMILES
1.02 nM | 2.43 nM | CC(C)(O)COc1cc(N2CCC(C)(C(N)=O)CC2)n2nc(-c3ccc(C#N)nc3)c(-c3ccc(Cl)cc3)c2n1 [Compound 54, 1-[3-(4-chlorophenyl)-2-(6-cyano-3-pyridyl)-5-(2-hydroxy-2-methyl-propoxy)pyrazolo[1,5-a]pyrimidin-7-yl]-4-methyl-piperidine-4-carboxamide]
3.69 nM | 8.6 nM | COc1ccc(-c2cc(N3CCC[C@H]3CO)nc3c(-c4ccc(Cl)cc4)c(-c4ccccc4Cl)nn23)cc1 [Compound 5, [(2S)-1-[2-(2-chlorophenyl)-3-(4-chlorophenyl)-7-(4-methoxyphenyl)pyrazolo-[1,5-a]pyrimidin-5-yl]pyrrolidin-2-yl]methanol]
1.07 nM | 1.24 nM | CC(C)(O)COc1cc(N2CCN(S(=O)(=O)C(F)(F)F)CC2)n2nc(-c3ccc(C#N)nc3)c(-c3ccc(Cl)cc3)c2n1 [Compound 53, 5-[3-(4-chlorophenyl)-5-(2-hydroxy-2-methyl-propoxy)-7-[4-(trifluoromethylsulfonyl)piperazin-1-yl]pyrazolo[1,5-a]pyrimidin-2-yl]pyridine-2-carbonitrile]
0.97 nM | 2.75 nM | CCOC1(C(N)=O)CCN(c2cc(N(C)CCO)nc3c(-c4ccc(Cl)cc4)c(-c4ccccc4Cl)nn23)CC1 [Compound 43, 1-[2-(2-chlorophenyl)-3-(4-chlorophenyl)-5-[2-hydroxyethyl(methyl)amino]pyrazolo[1,5-a]pyrimidin-7-yl]-4-ethoxy-piperidine-4-carboxamide]
3.89 nM | 19.4 nM | CCNC(=O)CN(C)c1cc(N2CCC(OCC)(C(N)=O)CC2)n2nc(-c3ccccc3Cl)c(-c3ccc(Cl)cc3)c2n1 [Compound 48, 1-[2-(2-chlorophenyl)-3-(4-chlorophenyl)-5-[[2-(ethylamino)-2-oxo-ethyl]-methyl-amino]pyrazolo[1,5-a]pyrimidin-7-yl]-4-ethoxy-piperidine-4-carboxamide]
